Earlier results as cited in patent EP1782809A1, “Use of ligands of PPARGamma for inducing foetal lung maturity and the prevention of the respiratory-distress syndrome in premature infants” (Charité-Universitätsmedizin Berlin, priority 2005, dated 2007).
Where two headings read alike, the source gives them in different places.

Assays:
[1] = not given; remark: listed apart in the source
[2] = rabbits; 20 or 75-fold of the maximal recommended human dosage

foetal growth ([1]; late pregnancy, at this dose (20 or 75-fold of human dosage), species not stated in the sentence (rats or rabbits) [26])	effect on the implantation or embryogenesis ([1]; rats)	Compound	incidence of elevated transaminases (human, in vivo)	teratogenic effect ([1]; rats, 20 or 75-fold of the maximal recommended human dosage)	teratogenic effect [2]	incidence of elevated transaminases (controlled clinical studies, compared to the placebo group [19])
		CCc1ccc(CCOc2ccc(CC3SC(=O)NC3=O)cc2)nc1 (stereo not shown) [pioglitazone]	similar			
can slow down the foetal growth	no effect	CN(CCOc1ccc(CC2SC(=O)NC2=O)cc1)c1ccccn1 (stereo not shown) [rosiglitazone]		no teratogenic effect	no teratogenic effect	similar
		Cc1c(C)c2c(c(C)c1O)CCC(C)(COc1ccc(CC3SC(=O)NC3=O)cc1)O2 (stereo not shown) [troglitazone]	triplicated			
